Measured values reported in PubChem BioAssay AID248 (DTP/NCI, 2004).
Several values for one entry are separate records, joined by “and”; a condition that tells them apart may be missing. Equal entries are not always repeated. Toxic doses and inconclusive results are not listed. Rule as the data show it: active = T/C of 150% or more; inactive = T/C below 125%. Square brackets hold non-standard residues; d marks the D form. Peptide text beside a SMILES is read from it. * marks the point of attachment. ξ: configuration not given here. Pentanoyl = CCCCC(=O)*; ξP = O=C(O)C1CCCN1; Ava = NCCCCC(=O)O

System: L1210 leukemia ip in BDF1 mice, survival T/C
Assay: NCI In Vivo Anticancer Drug Screen. Data for tumor model L1210 Leukemia (intraperitoneal) in B6D2F1 (BDF1) mice
Settings: endpoint: mean survival time, higher = longer survival
Outline: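 Value reflects the ratio of survival in compound-treated mice to survival in vehicle-treated controls, with both groups carrying the same transplanted tumor.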

[1] = dose: 100.0 mg/kg/injection, schedule: Q01DX009 (ip), vehicle: Klucel (hydroxypropylcellulose) (HPC)
[2] = dose: 100.0 mg/kg/injection, schedule: Q04DX002 (ip), vehicle: Klucel (hydroxypropylcellulose) (HPC)
[3] = dose: 200.0 mg/kg/injection, schedule: Q01DX009 (ip), vehicle: Klucel (hydroxypropylcellulose) (HPC)
[4] = dose: 200.0 mg/kg/injection, schedule: Q04DX002 (ip), vehicle: Klucel (hydroxypropylcellulose) (HPC)
[5] = dose: 400.0 mg/kg/injection, schedule: Q01DX009 (ip), vehicle: Klucel (hydroxypropylcellulose) (HPC)
[6] = dose: 100.0 mg/kg/injection, schedule: Q04DX003 (ip), vehicle: Klucel (hydroxypropylcellulose) (HPC)
[7] = dose: 200.0 mg/kg/injection, schedule: Q04DX003 (ip), vehicle: Klucel (hydroxypropylcellulose) (HPC)
[8] = dose: 400.0 mg/kg/injection, schedule: Q04DX003 (ip), vehicle: Klucel (hydroxypropylcellulose) (HPC)
[9] = dose: 50.0 mg/kg/injection, schedule: Q01DX009 (ip), vehicle: saline
[10] = dose: 100.0 mg/kg/injection, schedule: Q01DX009 (ip), vehicle: saline
[11] = dose: 100.0 mg/kg/injection, schedule: Q04DX003 (ip), vehicle: saline with Tween-80
[12] = dose: 200.0 mg/kg/injection, schedule: Q04DX003 (ip), vehicle: saline with Tween-80
[13] = dose: 100.0 mg/kg/injection, schedule: Q01DX009 (ip), vehicle: saline with Tween-80
[14] = dose: 200.0 mg/kg/injection, schedule: Q01DX009 (ip), vehicle: saline with Tween-80
[15] = dose: 100.0 mg/kg/injection, schedule: Q04DX003 (ip), vehicle: saline
[16] = dose: 400.0 mg/kg/injection, schedule: Q01DX009 (ip), vehicle: saline with Tween-80
[17] = dose: 100.0 mg/kg/injection, schedule: Q04DX002 (ip), vehicle: saline with Tween-80
[18] = dose: 200.0 mg/kg/injection, schedule: Q04DX002 (ip), vehicle: saline with Tween-80
[19] = dose: 400.0 mg/kg/injection, schedule: Q04DX002 (ip), vehicle: saline with Tween-80
[20] = dose: 100.0 mg/kg/injection, schedule: Q01DX001 (ip), vehicle: saline
[21] = dose: 200.0 mg/kg/injection, schedule: Q01DX001 (ip), vehicle: saline
[22] = dose: 400.0 mg/kg/injection, schedule: Q01DX001 (ip), vehicle: saline

Measured: T/C

NCc1c(Cl)cccc1[N+](=O)[O-]
inactive: dose: 50.0 mg/kg/injection, schedule: Q01DX009 (ip), vehicle: Klucel (hydroxypropylcellulose) (HPC) 96 % of control and 108 % of control | [1] 96 % of control and 99 % of control and 101 % of control | [2] 105 % of control | dose: 100.0 mg/kg/injection, schedule: Q04DX002 (ip), vehicle: saline 102 % of control | [3] 94 % of control and 104 % of control and 110 % of control | [4] 100 % of control | dose: 200.0 mg/kg/injection, schedule: Q04DX002 (ip), vehicle: saline 94 % of control

CN(Cc1ccccc1Cl)C(=O)Nc1ccccc1
inactive: [1] 101 % of control | [3] 106 % of control | [5] 101 % of control

NNC(=O)c1ccccc1Nc1ccc(Br)cc1
inactive: [1] 94 % of control | [6] 94 % of control | [3] 93 % of control | [7] 94 % of control | [5] 86 % of control | [8] 96 % of control

O=NN(c1ccccc1)c1ccc2ccccc2c1
inactive: [6] 105 % of control | [7] 110 % of control | [8] 110 % of control

N#C/C(=C1C=C(Br)/C(=N\O)C=C\1Cl)c1ccc(Cl)cc1
inactive: dose: 100.0 mg/kg/injection, schedule: Q01DX009 (ip), vehicle: acetone 95 % of control | dose: 100.0 mg/kg/injection, schedule: Q04DX003 (ip), vehicle: acetone 100 % of control | dose: 200.0 mg/kg/injection, schedule: Q04DX003 (ip), vehicle: acetone 100 % of control | dose: 400.0 mg/kg/injection, schedule: Q04DX003 (ip), vehicle: acetone 94 % of control

OCc1ccccc1NCc1ccccc1
inactive: [1] 103 % of control | dose: 100.0 mg/kg/injection, schedule: Q04DX003 (ip), vehicle: other 105 % of control | [3] 91 % of control | dose: 200.0 mg/kg/injection, schedule: Q04DX003 (ip), vehicle: other 100 % of control | [5] 99 % of control | dose: 400.0 mg/kg/injection, schedule: Q04DX003 (ip), vehicle: other 97 % of control

Cc1cccc(NC(=O)Nc2ccccc2)n1
inactive: [2] 98 % of control | [4] 103 % of control | dose: 400.0 mg/kg/injection, schedule: Q04DX002 (ip), vehicle: Klucel (hydroxypropylcellulose) (HPC) 103 % of control

C=[CH][Sn]([c]1ccccc1)([c]1ccccc1)[c]1ccccc1
inactive: [9] 92 % of control and 104 % of control and 109 % of control | [10] 106 % of control and 114 % of control and 89 % of control | dose: 200.0 mg/kg/injection, schedule: Q01DX009 (ip), vehicle: saline 96 % of control and 101 % of control (2×)

CC(C)(C)C(=O)CC(O)(C(F)(F)Cl)C(F)(F)Cl
inactive: [11] 107 % of control | [12] 91 % of control

CC(C)c1ccc([N+](=O)[O-])cc1
inactive: [13] 96 % of control | [14] 106 % of control

Cc1ccc(NC(=O)Oc2ccc(-c3ccccc3)cc2Br)c(Br)c1
inactive: [1] 93 % of control | [3] 94 % of control | [5] 91 % of control

Nc1[nH]c(=S)nc2c1ncn2C1CCCC1
inactive: dose: 100.0 mg/kg/injection, schedule: Q01DX001 (ip), vehicle: other 93 % of control | dose: 200.0 mg/kg/injection, schedule: Q01DX001 (ip), vehicle: other 93 % of control

Cc1cc(O)c(C(C)(C)C)cc1N=O
inactive: dose: 50.0 mg/kg/injection, schedule: Q04DX003 (ip), vehicle: saline + alcohol 104 % of control | dose: 100.0 mg/kg/injection, schedule: Q04DX003 (ip), vehicle: saline + alcohol 101 % of control | dose: 200.0 mg/kg/injection, schedule: Q04DX003 (ip), vehicle: saline + alcohol 95 % of control

CN(C)CCC1CCCCN1 (stereo not given)
inactive: dose: 25.0 mg/kg/injection, schedule: Q01DX009 (ip), vehicle: saline 95 % of control | dose: 25.0 mg/kg/injection, schedule: Q04DX003 (ip), vehicle: saline 103 % of control | [9] 95 % of control | dose: 50.0 mg/kg/injection, schedule: Q04DX003 (ip), vehicle: saline 101 % of control | [10] 104 % of control | [15] 99 % of control and 100 % of control

Cc1noc(C)c1CC1(c2ccccc2)CCCCC1=O (stereo not given)
inactive: [1] 93 % of control | [3] 95 % of control | [5] 93 % of control

CC(=O)COc1ccccc1NC(C)=O
inactive: [13] 101 % of control | [14] 106 % of control | [16] 109 % of control

OCCCNCc1ccccc1
inactive: [15] 94 % of control | dose: 200.0 mg/kg/injection, schedule: Q04DX003 (ip), vehicle: saline 103 % of control | dose: 400.0 mg/kg/injection, schedule: Q04DX003 (ip), vehicle: saline 97 % of control

CCCCN(CCCC)CC(O)c1cc(-c2ccccc2)nc2c(N)cccc12 (stereo not given)
inactive: dose: 75.0 mg/kg/injection, schedule: Q01DX001 (ip), vehicle: saline 98 % of control | dose: 150.0 mg/kg/injection, schedule: Q01DX001 (ip), vehicle: saline 100 % of control | dose: 300.0 mg/kg/injection, schedule: Q01DX001 (ip), vehicle: saline 96 % of control

COc1ccc(N=Cc2cc(Br)ccc2O)cc1
inactive: [17] 100 % of control | [18] 104 % of control | [19] 100 % of control

CCCCC(=O)NCC(=O)N1CCCC1C(=O)NCCCCC(=O)OC (stereo not given) (Pentanoyl-Gly-[ξP]-[Ava]-OMe)
inactive: [20] 98 % of control | [21] 95 % of control | [22] 95 % of control

CC(=O)OC/C=C(\C)CCC1OC1(C)C (stereo not given)
inactive: [20] 120 % of control | dose: 100.0 mg/kg/injection, schedule: Q04DX003 (ip), vehicle: water 102 % of control | [21] 108 % of control | dose: 200.0 mg/kg/injection, schedule: Q04DX003 (ip), vehicle: water 112 % of control | [22] 114 % of control | dose: 400.0 mg/kg/injection, schedule: Q04DX003 (ip), vehicle: water 101 % of control

O=[N+]([O-])c1ccc(NS(=O)(=O)c2ccc(Cl)c(Cl)c2)cc1
inactive: dose: 12.5 mg/kg/injection, schedule: Q01DX001 (ip), vehicle: other 92 % of control | dose: 12.5 mg/kg/injection, schedule: Q01DX009 (ip), vehicle: gum acacia 101 % of control | dose: 12.5 mg/kg/injection, schedule: Q04DX003 (ip), vehicle: other 95 % of control | dose: 25.0 mg/kg/injection, schedule: Q01DX001 (ip), vehicle: other 97 % of control | dose: 25.0 mg/kg/injection, schedule: Q01DX009 (ip), vehicle: gum acacia 91 % of control | dose: 25.0 mg/kg/injection, schedule: Q04DX003 (ip), vehicle: other 94 % of control | dose: 50.0 mg/kg/injection, schedule: Q01DX001 (ip), vehicle: other 97 % of control | dose: 50.0 mg/kg/injection, schedule: Q04DX003 (ip), vehicle: other 94 % of control

O=c1oc(-c2ccccc2)ccc1-c1ccccc1
inactive: [6] 98 % of control | [7] 100 % of control | [8] 96 % of control

CC(C)CCOC(=O)c1ccccc1OC(=O)Nc1ccc(Cl)cc1[N+](=O)[O-]
inactive: dose: 100.0 mg/kg/injection, schedule: Q01DX001 (ip), vehicle: saline with Tween-80 102 % of control | [13] 99 % of control and 89 % of control | [17] 94 % of control and 103 % of control | [11] 91 % of control | dose: 200.0 mg/kg/injection, schedule: Q01DX001 (ip), vehicle: saline with Tween-80 90 % of control | [14] 86 % of control and 89 % of control | [18] 97 % of control and 88 % of control | [12] 91 % of control | dose: 400.0 mg/kg/injection, schedule: Q01DX001 (ip), vehicle: saline with Tween-80 88 % of control | [16] 89 % of control | [19] 100 % of control and 104 % of control | dose: 400.0 mg/kg/injection, schedule: Q04DX003 (ip), vehicle: saline with Tween-80 99 % of control
